Reference: ChEMBL document CHEMBL3758102, “Serrulatane Diterpenoid from Eremophila neglecta Exhibits Bacterial Biofilm Dispersion and Inhibits Release of Pro-inflammatory Cytokines from Activated Macrophages” (J Nat Prod, 2015)
≈ marks a conversion by molar mass, not a printed value. Calls of active or inactive are those of the source. The rule behind the calls is not given here.

Legend:
[1] = system: Staphylococcus epidermidis; test: Antibiofilm activity against Staphylococcus epidermidis ATCC 35984 assessed as inhibition of 12 hrs pre-established biofilm formation after 20 hrs by safranin staining-based UV-visible spectroscopic analysis using compound impregnated in polypropylene mesh; type: functional, organism-based
[2] = system: Staphylococcus epidermidis; test: Antibacterial activity against Staphylococcus epidermidis ATCC 35984 incubated overnight by broth microdilution method; type: functional
[3] = Induction of apoptosis in C57Bl/6 mouse BMDM cells assessed as late apoptotic cells at 160 uM by annexin V-FITC/DAPI staining-based flow cytometric analysis (reference value: 28.4%); type: functional, C57BI/6
[4] = system: Staphylococcus epidermidis; test: Antibiofilm activity against Staphylococcus epidermidis ATCC 35984 assessed as 12 hrs pre-established supernatant viable cell count at 0.02 umol/mesh after 20 hrs by […] using compound impregnated in polypropylene mesh (Rvb =7.7 x 10^8 CFU/ml); type: functional
[5] = system: Staphylococcus aureus; test: Antibiofilm activity against Staphylococcus aureus ATCC 35556 assessed as inhibition of 24 hrs pre-established biofilm formation at 0.064 umol/well after 20 hrs by safranin staining-based method; type: functional, organism-based
[6] = system: BMDM; test: Inhibition of IL-6 production in C57Bl/6 mouse BMDM cells at 2.5 to 80 uM pretreated prior to LPS-stimulation measured on day 7 by ELISA; type: functional, cell-based; conditions: C57BI/6
[7] = system: Staphylococcus epidermidis; test: Antibiofilm activity against Staphylococcus epidermidis ATCC 35984 assessed as 24 hrs pre-established biofilm viable cell count after 20 hrs (reference value: 1.4 x 10^10 +/- 2.6 x 10^9 CFU/ml); type: functional
[8] = system: Staphylococcus epidermidis; test: Antibiofilm activity against Staphylococcus epidermidis ATCC 35984 assessed as 6 hrs pre-established biofilm viable cell count after 20 hrs (reference value: 8.3 x 10^9 CFU/ml); type: functional
[9] = Induction of apoptosis in C57Bl/6 mouse BMDM cells assessed as dead cells at 20 uM by annexin V-FITC/DAPI staining-based flow cytometric analysis (reference value: 24.4%); type: functional, C57BI/6
[10] = Induction of apoptosis in C57Bl/6 mouse BMDM cells assessed as viable cells at 40 uM by annexin V-FITC/DAPI staining-based flow cytometric analysis (reference value: 46.7%); type: functional; conditions: C57BI/6, BMDM, read-out: Activity
[11] = Induction of apoptosis in C57Bl/6 mouse BMDM cells assessed as early apoptotic cells at 2.5 uM by annexin V-FITC/DAPI staining-based flow cytometric analysis (reference value: 0.49%); type: functional, C57BI/6
[12] = system: Staphylococcus epidermidis; test: Antibiofilm activity against Staphylococcus epidermidis ATCC 35984 assessed as 12 hrs pre-established supernatant viable cell count at 0.04 umol/mesh after 20 hrs by […] using compound impregnated in polypropylene mesh (Rvb =7.7 x 10^8 CFU/ml); type: functional
[13] = system: Escherichia coli; test: Antibacterial activity against Escherichia coli ATCC 25922 at 658 uM incubated overnight by broth microdilution method; type: functional, organism-based
[14] = system: BMDM; test: Inhibition of IL-6 production in C57Bl/6 mouse BMDM cells at 5 uM pretreated prior to LPS-stimulation measured on day 7 by ELISA; type: functional, cell-based; conditions: C57BI/6
[15] = system: Staphylococcus epidermidis; test: Antibiofilm activity against Staphylococcus epidermidis ATCC 35984 assessed as 12 hrs pre-established biofilm viable cell count at 0.16 umol/mesh after 20 hrs by […] using compound impregnated in polypropylene mesh (reference value: 8.6 x 10^9 CFU/ml); type: functional
[16] = system: Staphylococcus epidermidis; test: Antibiofilm activity against Staphylococcus epidermidis ATCC 35984 assessed as 12 hrs pre-established biofilm viable cell count at 0.08 umol/mesh after 20 hrs by […] using compound impregnated in polypropylene mesh (reference value: 8.6 x 10^9 CFU/ml); type: functional
[17] = system: Staphylococcus epidermidis; test: Antibiofilm activity against Staphylococcus epidermidis ATCC 35984 assessed as reduction in 12 hrs pre-established biofilm viable cell count at 0.16 umol after 20 hrs relative to control; type: functional
[18] = Induction of apoptosis in C57Bl/6 mouse BMDM cells assessed as late apoptotic cells at 20 uM by annexin V-FITC/DAPI staining-based flow cytometric analysis (reference value: 28.4%); type: functional, C57BI/6
[19] = Induction of apoptosis in C57Bl/6 mouse BMDM cells assessed as early apoptotic cells at 40 uM by annexin V-FITC/DAPI staining-based flow cytometric analysis (reference value: 0.49%); type: functional, C57BI/6
[20] = system: Staphylococcus epidermidis; test: Antibiofilm activity against Staphylococcus epidermidis ATCC 35984 assessed as 12 hrs pre-established biofilm viable cell count at 0.02 umol/mesh after 20 hrs by […] using compound impregnated in polypropylene mesh (reference value: 8.6 x 10^9 CFU/ml); type: functional
[21] = system: Staphylococcus aureus; test: Antibacterial activity against Staphylococcus aureus ATCC 25923 incubated overnight by broth microdilution method; type: functional
[22] = Induction of apoptosis in C57Bl/6 mouse BMDM cells assessed as early apoptotic cells at 80 uM by annexin V-FITC/DAPI staining-based flow cytometric analysis (reference value: 0.49%); type: functional, C57BI/6
[23] = Induction of apoptosis in C57Bl/6 mouse BMDM cells assessed as viable cells at 2.5 uM by annexin V-FITC/DAPI staining-based flow cytometric analysis (reference value: 46.7%); type: functional; conditions: C57BI/6, BMDM, read-out: Activity
[24] = Induction of apoptosis in C57Bl/6 mouse BMDM cells assessed as dead cells at 160 uM by annexin V-FITC/DAPI staining-based flow cytometric analysis (reference value: 24.4%); type: functional, C57BI/6
[25] = Induction of apoptosis in C57Bl/6 mouse BMDM cells assessed as late apoptotic cells at 80 uM by annexin V-FITC/DAPI staining-based flow cytometric analysis (reference value: 28.4%); type: functional, C57BI/6
[26] = system: Staphylococcus epidermidis; test: Antibiofilm activity against Staphylococcus epidermidis ATCC 35984 assessed as reduction in 24 hrs pre-established biofilm viable cell count after 20 hrs (reference value: 1.4 x 10^10 +/- 2.6 x 10^9 CFU/ml); type: functional
[27] = Induction of apoptosis in C57Bl/6 mouse BMDM cells assessed as dead cells at 40 uM by annexin V-FITC/DAPI staining-based flow cytometric analysis (reference value: 24.4%); type: functional, C57BI/6
[28] = system: Staphylococcus epidermidis; test: Antibiofilm activity against Staphylococcus epidermidis ATCC 35984 assessed as inhibition of 12 hrs pre-established biofilm formation at 0.064 umol/well after 20 hrs by visible spectrometric analysis; type: functional, organism-based
[29] = system: Staphylococcus epidermidis; test: Antibiofilm activity against Staphylococcus epidermidis ATCC 35984 assessed as 12 hrs pre-established biofilm viable cell count after 20 hrs (reference value: 1.2 x 10^10 CFU/ml); type: functional

Structure (SMILES): CC(C)=CCC[C@H](C)[C@@H]1CC[C@@H](C)c2c(O)cc(C(=O)O)cc21
- inhibition [1]: Dose-dependent effect
- MBC [2]: 82 µM (≈ 25.9 µg/mL)
- MIC [2]: 82 µM (≈ 25.9 µg/mL)
- Activity [3]: 3.88%
- Activity [4]: 5 ×10⁷ CFU/ml
- inhibition [5]: Active
- inhibition [6]: Active
- Activity [7]: 4.2 ×10⁸ CFU/ml
- Activity [8]: 0 CFU/ml
- Activity [9]: 6.76%
- viability at 40 µM [10]: 49.5%
- Activity [11]: 2.54%
- Activity [12]: 1.5 ×10⁷ CFU/ml
- Activity [13]: inactive
- inhibition [14]: Active
- Activity [15]: 3.9 ×10⁴ CFU/ml
- Activity [16]: 2.7 ×10⁵ CFU/ml
- Activity [17]: 5 log10CFU/ml
- Activity [18]: 27%
- Activity [19]: 0.99%
- Activity [20]: 9.1 ×10⁸ CFU/ml
- MBC [21]: 82 µM (≈ 25.9 µg/mL)
- MIC [21]: 41 µM (≈ 13 µg/mL)
- Activity [22]: 0.81%
- viability at 2.5 µM [23]: 51.4%
- Activity [24]: 0.63%
- Activity [25]: 44.4%
- Activity [26]: 2 log10CFU/ml
- Activity [27]: 21.8%
- inhibition [28]: Active
- Activity [29]: 6 ×10³ CFU/ml
